What was measured:
[1] = molecular target: T1, Thyroxine-binding globulin (Homo sapiens) (UniProt P05543); assay: Percentage thyroxine-binding globulin binding activity of compound was determined in human serum; assay type: cell-free
T1 sequence (whole entry): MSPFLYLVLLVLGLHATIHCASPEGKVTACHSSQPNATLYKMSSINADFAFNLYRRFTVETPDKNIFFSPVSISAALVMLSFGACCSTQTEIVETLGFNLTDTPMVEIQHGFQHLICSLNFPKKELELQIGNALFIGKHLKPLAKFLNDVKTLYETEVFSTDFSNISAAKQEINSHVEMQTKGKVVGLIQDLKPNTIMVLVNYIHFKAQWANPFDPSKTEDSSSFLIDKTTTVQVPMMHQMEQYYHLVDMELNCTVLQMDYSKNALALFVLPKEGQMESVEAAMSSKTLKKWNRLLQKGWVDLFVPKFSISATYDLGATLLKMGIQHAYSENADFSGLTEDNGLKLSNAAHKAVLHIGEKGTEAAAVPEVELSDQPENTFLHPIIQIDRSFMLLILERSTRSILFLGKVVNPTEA

Rattus norvegicus = species on record: Rattus norvegicus; assay: In vitro binding affinity of compound to the rat Hepatic nuclear protein receptors was determined
[2] = In vivo percentage antigoiter activity of compound was determined; assay type: functional, Rattus norvegicus; set-up: concentration or dose not given beside the values
[3] = In vitro percentage thymocyte activity of compound was determined in rat; assay type: functional; set-up: concentration or dose not given beside the values
[4] = molecular target: T1, Thyroxine-binding globulin (Homo sapiens); assay: Percentage thyroxine-binding globulin (TBG) binding activity of compound was determined in human serum; assay type: cell-free

Row | Activity [1] [%] | Activity (Rattus norvegicus) [%] | Activity [4] [%] | SMILES | Activity [2] [%] | Activity [3] [%]
1 | 100 | 12.5 | – | N[C@@H](Cc1cc(I)c(Oc2cc(I)c(O)c(I)c2)c(I)c1)C(=O)O [LEVOTHYROXINE] | 18 | 30
2 | – | – | 9 | N[C@@H](Cc1cc(I)c(Oc2ccc(O)c(I)c2)c(I)c1)C(=O)O [LIOTHYRONINE] | 100 | 100

More lines, now with the values behind:

Row | SMILES | Activity [1] [%] | Activity (Rattus norvegicus) [%] | Activity [4] [%] | Activity [2] [%] | Activity [3] [%]
3 | Cc1cc(Oc2c(C)cc(CC(N)C(=O)O)cc2C)ccc1O (centres undefined) | – | 0.1 | 0 | 0.36 | 23
4 | Cc1cc(CC(N)C(=O)O)cc(C)c1Oc1ccc(O)c(C(C)C)c1 (centres undefined) | – | 0.7 | 0.05 | 3.6 | 48
5 | Cc1cc(Oc2c(C)cc(CC(N)C(=O)O)cc2C)cc(C)c1O (centres undefined) | – | 0.1 | 0 | 0.54 | 23

From ChEMBL document CHEMBL1121443, “Role of iodine in thyroid hormones: molecular conformation of a halogen-free hormone analogue” (1980)
